Oligonucleotides are given in HELM: sugar(base)linkage, 5' to 3'; d 2'-deoxyribose, r ribose, m 2'-O-methylribose, p phosphate. ss, as = sense and antisense strand
Molecular target: Mmp7 (rat)
Assay: reporter assay of Huesken 2005
Details: siRNA
Further: test concentration or dose not given here.

Substance	normalised inhibition (eCFP-eYFP dual reporter) [%]
RNA1{r(C)p.r(C)p.r(C)p.r(A)p.r(G)p.r(G)p.r(A)p.r(A)p.r(G)p.r(C)p.r(C)p.r(G)p.r(G)p.r(A)p.r(G)p.r(A)p.r(A)p.r(G)p.r(U)p.d(T)p.d(T)}|RNA2{r(A)p.r(C)p.r(U)p.r(U)p.r(C)p.r(U)p.r(C)p.r(C)p.r(G)p.r(G)p.r(C)p.r(U)p.r(U)p.r(C)p.r(C)p.r(U)p.r(G)p.r(G)p.r(G)p.d(A)p.d(C)}$$$RNA1{StrandType:ss}|RNA2{StrandType:as}$	64.2
RNA1{r(C)p.r(C)p.r(C)p.r(A)p.r(G)p.r(G)p.r(U)p.r(G)p.r(U)p.r(G)p.r(G)p.r(A)p.r(G)p.r(U)p.r(G)p.r(C)p.r(C)p.r(A)p.r(G)p.d(T)p.d(T)}|RNA2{r(C)p.r(U)p.r(G)p.r(G)p.r(C)p.r(A)p.r(C)p.r(U)p.r(C)p.r(C)p.r(A)p.r(C)p.r(A)p.r(C)p.r(C)p.r(U)p.r(G)p.r(G)p.r(G)p.d(C)p.d(T)}$$$RNA1{StrandType:ss}|RNA2{StrandType:as}$	60.7
RNA1{r(C)p.r(C)p.r(C)p.r(U)p.r(A)p.r(C)p.r(C)p.r(U)p.r(A)p.r(U)p.r(C)p.r(A)p.r(A)p.r(G)p.r(G)p.r(A)p.r(G)p.r(A)p.r(U)p.d(T)p.d(T)}|RNA2{r(A)p.r(U)p.r(C)p.r(U)p.r(C)p.r(C)p.r(U)p.r(U)p.r(G)p.r(A)p.r(U)p.r(A)p.r(G)p.r(G)p.r(U)p.r(A)p.r(G)p.r(G)p.r(G)p.d(T)p.d(A)}$$$RNA1{StrandType:ss}|RNA2{StrandType:as}$	102
RNA1{r(C)p.r(C)p.r(G)p.r(C)p.r(A)p.r(C)p.r(U)p.r(U)p.r(C)p.r(A)p.r(G)p.r(U)p.r(G)p.r(G)p.r(G)p.r(A)p.r(A)p.r(C)p.r(A)p.d(T)p.d(T)}|RNA2{r(U)p.r(G)p.r(U)p.r(U)p.r(C)p.r(C)p.r(C)p.r(A)p.r(C)p.r(U)p.r(G)p.r(A)p.r(A)p.r(G)p.r(U)p.r(G)p.r(C)p.r(G)p.r(G)p.d(T)p.d(C)}$$$RNA1{StrandType:ss}|RNA2{StrandType:as}$	91.6
RNA1{r(C)p.r(C)p.r(G)p.r(G)p.r(A)p.r(G)p.r(A)p.r(A)p.r(G)p.r(U)p.r(G)p.r(A)p.r(C)p.r(C)p.r(G)p.r(C)p.r(A)p.r(C)p.r(U)p.d(T)p.d(T)}|RNA2{r(A)p.r(G)p.r(U)p.r(G)p.r(C)p.r(G)p.r(G)p.r(U)p.r(C)p.r(A)p.r(C)p.r(U)p.r(U)p.r(C)p.r(U)p.r(C)p.r(C)p.r(G)p.r(G)p.d(C)p.d(T)}$$$RNA1{StrandType:ss}|RNA2{StrandType:as}$	94.4
RNA1{r(C)p.r(C)p.r(U)p.r(C)p.r(G)p.r(G)p.r(C)p.r(G)p.r(G)p.r(A)p.r(G)p.r(A)p.r(U)p.r(G)p.r(C)p.r(U)p.r(C)p.r(A)p.r(C)p.d(T)p.d(T)}|RNA2{r(G)p.r(U)p.r(G)p.r(A)p.r(G)p.r(C)p.r(A)p.r(U)p.r(C)p.r(U)p.r(C)p.r(C)p.r(G)p.r(C)p.r(C)p.r(G)p.r(A)p.r(G)p.r(G)p.d(C)p.d(C)}$$$RNA1{StrandType:ss}|RNA2{StrandType:as}$	72.1
RNA1{r(C)p.r(C)p.r(U)p.r(G)p.r(C)p.r(C)p.r(A)p.r(C)p.r(U)p.r(G)p.r(U)p.r(C)p.r(C)p.r(C)p.r(A)p.r(G)p.r(G)p.r(A)p.r(A)p.d(T)p.d(T)}|RNA2{r(U)p.r(U)p.r(C)p.r(C)p.r(U)p.r(G)p.r(G)p.r(G)p.r(A)p.r(C)p.r(A)p.r(G)p.r(U)p.r(G)p.r(G)p.r(C)p.r(A)p.r(G)p.r(G)p.d(G)p.d(C)}$$$RNA1{StrandType:ss}|RNA2{StrandType:as}$	67.9
RNA1{r(C)p.r(C)p.r(U)p.r(U)p.r(C)p.r(A)p.r(C)p.r(G)p.r(A)p.r(C)p.r(U)p.r(C)p.r(U)p.r(A)p.r(A)p.r(A)p.r(A)p.r(C)p.r(A)p.d(T)p.d(T)}|RNA2{r(U)p.r(G)p.r(U)p.r(U)p.r(U)p.r(U)p.r(A)p.r(G)p.r(A)p.r(G)p.r(U)p.r(C)p.r(G)p.r(U)p.r(G)p.r(A)p.r(A)p.r(G)p.r(G)p.d(T)p.d(A)}$$$RNA1{StrandType:ss}|RNA2{StrandType:as}$	126
RNA1{r(C)p.r(G)p.r(A)p.r(C)p.r(U)p.r(C)p.r(U)p.r(A)p.r(A)p.r(A)p.r(A)p.r(C)p.r(A)p.r(A)p.r(A)p.r(G)p.r(A)p.r(A)p.r(G)p.d(T)p.d(T)}|RNA2{r(C)p.r(U)p.r(U)p.r(C)p.r(U)p.r(U)p.r(U)p.r(G)p.r(U)p.r(U)p.r(U)p.r(U)p.r(A)p.r(G)p.r(A)p.r(G)p.r(U)p.r(C)p.r(G)p.d(T)p.d(G)}$$$RNA1{StrandType:ss}|RNA2{StrandType:as}$	113
RNA1{r(C)p.r(G)p.r(C)p.r(A)p.r(A)p.r(G)p.r(G)p.r(G)p.r(G)p.r(A)p.r(G)p.r(A)p.r(U)p.r(C)p.r(A)p.r(C)p.r(G)p.r(G)p.r(A)p.d(T)p.d(T)}|RNA2{r(U)p.r(C)p.r(C)p.r(G)p.r(U)p.r(G)p.r(A)p.r(U)p.r(C)p.r(U)p.r(C)p.r(C)p.r(C)p.r(C)p.r(U)p.r(U)p.r(G)p.r(C)p.r(G)p.d(A)p.d(A)}$$$RNA1{StrandType:ss}|RNA2{StrandType:as}$	97.3
RNA1{r(C)p.r(G)p.r(C)p.r(A)p.r(C)p.r(U)p.r(U)p.r(C)p.r(A)p.r(G)p.r(U)p.r(G)p.r(G)p.r(G)p.r(A)p.r(A)p.r(C)p.r(A)p.r(G)p.d(T)p.d(T)}|RNA2{r(C)p.r(U)p.r(G)p.r(U)p.r(U)p.r(C)p.r(C)p.r(C)p.r(A)p.r(C)p.r(U)p.r(G)p.r(A)p.r(A)p.r(G)p.r(U)p.r(G)p.r(C)p.r(G)p.d(G)p.d(T)}$$$RNA1{StrandType:ss}|RNA2{StrandType:as}$	91.1
RNA1{r(C)p.r(G)p.r(G)p.r(C)p.r(G)p.r(G)p.r(A)p.r(G)p.r(A)p.r(U)p.r(G)p.r(C)p.r(U)p.r(C)p.r(A)p.r(C)p.r(U)p.r(U)p.r(U)p.d(T)p.d(T)}|RNA2{r(A)p.r(A)p.r(A)p.r(G)p.r(U)p.r(G)p.r(A)p.r(G)p.r(C)p.r(A)p.r(U)p.r(C)p.r(U)p.r(C)p.r(C)p.r(G)p.r(C)p.r(C)p.r(G)p.d(A)p.d(G)}$$$RNA1{StrandType:ss}|RNA2{StrandType:as}$	118
RNA1{r(C)p.r(U)p.r(A)p.r(C)p.r(C)p.r(U)p.r(A)p.r(U)p.r(C)p.r(A)p.r(A)p.r(G)p.r(G)p.r(A)p.r(G)p.r(A)p.r(U)p.r(C)p.r(A)p.d(T)p.d(T)}|RNA2{r(U)p.r(G)p.r(A)p.r(U)p.r(C)p.r(U)p.r(C)p.r(C)p.r(U)p.r(U)p.r(G)p.r(A)p.r(U)p.r(A)p.r(G)p.r(G)p.r(U)p.r(A)p.r(G)p.d(G)p.d(G)}$$$RNA1{StrandType:ss}|RNA2{StrandType:as}$	114
RNA1{r(C)p.r(U)p.r(A)p.r(U)p.r(C)p.r(A)p.r(A)p.r(G)p.r(G)p.r(A)p.r(G)p.r(A)p.r(U)p.r(C)p.r(A)p.r(U)p.r(U)p.r(C)p.r(A)p.d(T)p.d(T)}|RNA2{r(U)p.r(G)p.r(A)p.r(A)p.r(U)p.r(G)p.r(A)p.r(U)p.r(C)p.r(U)p.r(C)p.r(C)p.r(U)p.r(U)p.r(G)p.r(A)p.r(U)p.r(A)p.r(G)p.d(G)p.d(T)}$$$RNA1{StrandType:ss}|RNA2{StrandType:as}$	115
RNA1{r(C)p.r(U)p.r(C)p.r(U)p.r(C)p.r(U)p.r(G)p.r(G)p.r(G)p.r(U)p.r(C)p.r(U)p.r(G)p.r(G)p.r(G)p.r(U)p.r(C)p.r(A)p.r(C)p.d(T)p.d(T)}|RNA2{r(G)p.r(U)p.r(G)p.r(A)p.r(C)p.r(C)p.r(C)p.r(A)p.r(G)p.r(A)p.r(C)p.r(C)p.r(C)p.r(A)p.r(G)p.r(A)p.r(G)p.r(A)p.r(G)p.d(T)p.d(G)}$$$RNA1{StrandType:ss}|RNA2{StrandType:as}$	73.1
RNA1{r(C)p.r(U)p.r(G)p.r(A)p.r(G)p.r(G)p.r(G)p.r(A)p.r(A)p.r(A)p.r(U)p.r(G)p.r(C)p.r(A)p.r(G)p.r(A)p.r(A)p.r(G)p.r(U)p.d(T)p.d(T)}|RNA2{r(A)p.r(C)p.r(U)p.r(U)p.r(C)p.r(U)p.r(G)p.r(C)p.r(A)p.r(U)p.r(U)p.r(U)p.r(C)p.r(C)p.r(C)p.r(U)p.r(C)p.r(A)p.r(G)p.d(T)p.d(T)}$$$RNA1{StrandType:ss}|RNA2{StrandType:as}$	83.4
RNA1{r(C)p.r(U)p.r(G)p.r(G)p.r(G)p.r(U)p.r(C)p.r(U)p.r(G)p.r(G)p.r(G)p.r(U)p.r(C)p.r(A)p.r(C)p.r(U)p.r(C)p.r(U)p.r(U)p.d(T)p.d(T)}|RNA2{r(A)p.r(A)p.r(G)p.r(A)p.r(G)p.r(U)p.r(G)p.r(A)p.r(C)p.r(C)p.r(C)p.r(A)p.r(G)p.r(A)p.r(C)p.r(C)p.r(C)p.r(A)p.r(G)p.d(A)p.d(G)}$$$RNA1{StrandType:ss}|RNA2{StrandType:as}$	87.6
RNA1{r(C)p.r(U)p.r(U)p.r(C)p.r(C)p.r(C)p.r(A)p.r(U)p.r(U)p.r(U)p.r(G)p.r(A)p.r(U)p.r(G)p.r(G)p.r(G)p.r(C)p.r(C)p.r(A)p.d(T)p.d(T)}|RNA2{r(U)p.r(G)p.r(G)p.r(C)p.r(C)p.r(C)p.r(A)p.r(U)p.r(C)p.r(A)p.r(A)p.r(A)p.r(U)p.r(G)p.r(G)p.r(G)p.r(A)p.r(A)p.r(G)p.d(T)p.d(T)}$$$RNA1{StrandType:ss}|RNA2{StrandType:as}$	85
RNA1{r(G)p.r(A)p.r(A)p.r(A)p.r(C)p.r(A)p.r(C)p.r(U)p.r(C)p.r(U)p.r(A)p.r(G)p.r(G)p.r(C)p.r(C)p.r(A)p.r(U)p.r(G)p.r(C)p.d(T)p.d(T)}|RNA2{r(G)p.r(C)p.r(A)p.r(U)p.r(G)p.r(G)p.r(C)p.r(C)p.r(U)p.r(A)p.r(G)p.r(A)p.r(G)p.r(U)p.r(G)p.r(U)p.r(U)p.r(U)p.r(C)p.d(C)p.d(T)}$$$RNA1{StrandType:ss}|RNA2{StrandType:as}$	53.7
RNA1{r(G)p.r(A)p.r(A)p.r(C)p.r(U)p.r(U)p.r(C)p.r(C)p.r(U)p.r(G)p.r(U)p.r(U)p.r(U)p.r(G)p.r(U)p.r(U)p.r(G)p.r(C)p.r(C)p.d(T)p.d(T)}|RNA2{r(G)p.r(G)p.r(C)p.r(A)p.r(A)p.r(C)p.r(A)p.r(A)p.r(A)p.r(C)p.r(A)p.r(G)p.r(G)p.r(A)p.r(A)p.r(G)p.r(U)p.r(U)p.r(C)p.d(A)p.d(C)}$$$RNA1{StrandType:ss}|RNA2{StrandType:as}$	53.6
